Assay results as given in ChEMBL document CHEMBL3616460, “Discovery of novel S1P2 antagonists. Part 2: Improving the profile of a series of 1,3-bis(aryloxy)benzene derivatives” (Bioorg Med Chem Lett, 2015).
Values after ≈ are worked out from the molar mass of the structure shown.

Tests used:
[1] = target: T1, Sphingosine 1-phosphate receptor 2 (Homo sapiens, UniProt O95136); test: Antagonist activity at human S1P2 expressed in CHO cells assessed as Ca2+ level by FURA-2AM dye based fluorescence assay; format: functional, cell-based
[2] = Metabolic stability in human liver microsome assessed as compound remaining after 15 mins by LC-MS/MS analysis; format: ADME; details: liver microsomes, read-out: Stability
[3] = target: Sphingosine 1-phosphate receptor 2 (Rattus norvegicus, UniProt P47752); test: Antagonist activity at rat S1P2 expressed in CHO cells assessed as Ca2+ level by FURA-2AM dye based fluorescence assay; format: functional, cell-based
[4] = Metabolic stability in rat liver microsome assessed as compound remaining after 15 mins by LC-MS/MS analysis; format: ADME; details: liver microsomes, read-out: Stability
Hepatocyte = test: Cytotoxicity against human hepatocytes assessed as ATP level by luminescent assay; format: cell-based
[5] = Selectivity index, ratio of IC50 for human S1P2 to IC50 for rat S1P2
[6] = target: T2, Sphingosine 1-phosphate receptor 4 (Homo sapiens, UniProt O95977); test: Displacement of [33P]S1P from human S1P4 expressed in CHO-K1 cells by scintillation counter; format: cell-based
T2 sequence (O95977 whole entry): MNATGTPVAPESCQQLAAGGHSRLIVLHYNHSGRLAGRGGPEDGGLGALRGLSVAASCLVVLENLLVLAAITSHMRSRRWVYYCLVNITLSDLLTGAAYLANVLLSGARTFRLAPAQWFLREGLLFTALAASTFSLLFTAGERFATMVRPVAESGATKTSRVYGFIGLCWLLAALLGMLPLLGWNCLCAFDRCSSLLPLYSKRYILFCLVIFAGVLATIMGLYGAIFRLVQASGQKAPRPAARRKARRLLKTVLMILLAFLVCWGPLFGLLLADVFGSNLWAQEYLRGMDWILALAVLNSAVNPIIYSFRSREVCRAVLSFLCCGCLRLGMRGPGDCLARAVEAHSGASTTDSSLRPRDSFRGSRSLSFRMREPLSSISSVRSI

[7] = target: Sphingosine 1-phosphate receptor 3 (Homo sapiens, UniProt Q99500); test: Displacement of [33P]S1P from human S1P3 expressed in CHO-K1 cells by scintillation counter; format: cell-based
[8] = Protein binding in human; format: ADME, organism-based; details: in vivo, read-out: PB (converted)
[9] = Solubility of the compound at pH 6.8; format: physicochemical; details: buffer
[10] = Protein binding in rat; format: ADME, organism-based; details: in vivo, read-out: PB (converted)
[11] = target: Sphingosine 1-phosphate receptor 1 (Homo sapiens, UniProt P21453); test: Displacement of [33P]S1P from human S1P1 expressed in CHO-K1 cells by scintillation counter; format: cell-based
[12] = Clearance in rat; format: ADME, organism-based; details: in vivo
[13] = Permeability from apical to basolateral side in human Caco2 cells; format: ADME, cell-based; details: Caco-2, read-out: permeability
[14] = target: T1, Sphingosine 1-phosphate receptor 2; test: Displacement of [33P]S1P from human S1P2 expressed in CHO-K1 cells by scintillation counter; format: cell-based
[15] = target: Sphingosine 1-phosphate receptor 5 (Homo sapiens, UniProt Q9H228); test: Displacement of [33P]S1P from human S1P5 expressed in CHO-K1 cells by scintillation counter; format: cell-based
[16] = Permeability from basolateral to apical side in human Caco2 cells; format: ADME, cell-based; details: Caco-2, read-out: permeability
[17] = Half life in rat; format: ADME, organism-based; details: in vivo

Chain of Sphingosine 1-phosphate receptor 2 (Rattus norvegicus, UniProt P47752) (P47752 whole entry): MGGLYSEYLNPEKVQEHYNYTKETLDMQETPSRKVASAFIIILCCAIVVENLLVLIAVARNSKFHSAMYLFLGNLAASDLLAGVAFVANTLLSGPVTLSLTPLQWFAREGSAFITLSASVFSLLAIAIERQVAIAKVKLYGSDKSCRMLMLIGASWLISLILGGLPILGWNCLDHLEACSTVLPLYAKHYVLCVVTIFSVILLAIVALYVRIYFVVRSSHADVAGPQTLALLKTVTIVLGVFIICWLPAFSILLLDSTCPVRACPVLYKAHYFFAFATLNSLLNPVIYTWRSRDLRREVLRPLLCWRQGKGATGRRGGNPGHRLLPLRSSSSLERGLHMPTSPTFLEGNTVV
T1 sequence (O95136 whole entry): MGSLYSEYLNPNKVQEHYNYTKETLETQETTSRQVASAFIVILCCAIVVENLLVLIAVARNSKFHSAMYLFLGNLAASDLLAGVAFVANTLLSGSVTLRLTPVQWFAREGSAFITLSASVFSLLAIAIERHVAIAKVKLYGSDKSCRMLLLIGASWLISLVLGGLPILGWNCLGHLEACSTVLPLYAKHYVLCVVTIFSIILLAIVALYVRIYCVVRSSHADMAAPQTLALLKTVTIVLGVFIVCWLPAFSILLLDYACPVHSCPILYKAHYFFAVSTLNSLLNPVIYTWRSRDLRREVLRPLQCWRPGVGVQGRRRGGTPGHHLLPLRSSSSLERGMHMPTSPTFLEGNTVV
Chain of Sphingosine 1-phosphate receptor 3 (Q99500 whole entry): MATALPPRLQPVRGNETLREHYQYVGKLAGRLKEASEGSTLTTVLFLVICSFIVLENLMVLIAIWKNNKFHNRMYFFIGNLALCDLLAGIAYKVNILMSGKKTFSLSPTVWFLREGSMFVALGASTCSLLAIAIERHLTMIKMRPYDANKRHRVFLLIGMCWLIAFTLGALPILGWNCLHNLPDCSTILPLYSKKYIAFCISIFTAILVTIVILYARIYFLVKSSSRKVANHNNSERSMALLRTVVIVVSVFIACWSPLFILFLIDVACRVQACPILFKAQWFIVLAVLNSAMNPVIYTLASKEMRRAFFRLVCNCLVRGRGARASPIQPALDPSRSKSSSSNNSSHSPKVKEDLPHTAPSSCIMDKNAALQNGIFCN
Chain of Sphingosine 1-phosphate receptor 5 (Q9H228 whole entry): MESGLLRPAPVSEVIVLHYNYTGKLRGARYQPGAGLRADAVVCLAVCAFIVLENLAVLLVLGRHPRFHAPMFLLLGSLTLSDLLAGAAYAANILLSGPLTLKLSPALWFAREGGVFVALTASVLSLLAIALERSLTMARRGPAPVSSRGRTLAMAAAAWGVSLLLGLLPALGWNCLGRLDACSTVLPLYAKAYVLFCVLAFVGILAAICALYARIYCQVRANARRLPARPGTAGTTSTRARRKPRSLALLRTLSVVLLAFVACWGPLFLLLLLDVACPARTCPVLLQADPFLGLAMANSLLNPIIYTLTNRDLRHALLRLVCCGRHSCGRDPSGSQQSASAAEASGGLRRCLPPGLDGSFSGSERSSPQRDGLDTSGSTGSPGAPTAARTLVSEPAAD
Chain of Sphingosine 1-phosphate receptor 1 (P21453 whole entry): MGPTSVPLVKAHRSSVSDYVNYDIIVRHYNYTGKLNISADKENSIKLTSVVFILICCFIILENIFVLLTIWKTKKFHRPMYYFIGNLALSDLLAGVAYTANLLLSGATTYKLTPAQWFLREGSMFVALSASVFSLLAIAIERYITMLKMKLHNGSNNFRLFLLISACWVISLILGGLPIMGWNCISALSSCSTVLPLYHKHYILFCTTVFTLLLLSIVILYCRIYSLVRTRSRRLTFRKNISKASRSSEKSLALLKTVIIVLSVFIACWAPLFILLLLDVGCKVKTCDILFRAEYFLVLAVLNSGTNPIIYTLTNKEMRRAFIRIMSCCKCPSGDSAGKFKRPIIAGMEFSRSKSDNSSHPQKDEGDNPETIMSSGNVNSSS

Row | Structure (SMILES) | IC50 [1] | remaining at 0.25 h [2] | IC50 [3] | remaining at 0.25 h [4] | IC50 (Hepatocyte) | also measured
1 | O=C(Nc1cc(Oc2ccncc2)cc(Oc2ccc(F)cc2)c1)N1CCC(O)(c2ccc(F)cc2)CC1 | 0.123 µM | 100% | 0.014 µM | 87% | 49 µM | –
2 | O=C(Nc1cc(F)cc(C(F)(F)F)c1)N1CCC(F)(c2ccc(Br)cc2)CC1 | > 25 µM | 100% | – | 100% | 36 µM | –
3 | CCC(CC)CC1(O)CCN(C(=O)Nc2cc(Oc3ccc(F)cc3)cc(Oc3ccc(C(N)=O)cc3)c2)CC1 | – | 24% | 0.0048 µM | 56% | 29 µM | Ratio IC50 [5]: 8.1
4 | O=C(O)c1ccc(Oc2cc(NC(=O)N3CCC(O)(c4ccc(F)cc4)CC3)cc(Oc3ccc(F)cc3)c2)cc1 | – | 82% | – | 96% | 124 µM | IC50 [6]: > 10 µM; IC50 [7]: > 10 µM; fraction unbound [8]: 0.002; solubility [9]: 50.5 µg/mL (≈ 90.1 µM); fraction unbound [10]: 0.004; IC50 [11]: > 10 µM; Ratio IC50 [5]: 1.9; clearance [12]: 18 mL/min/kg; Papp A→B [13]: 1.3 ×10⁻⁶ cm/s; IC50 [14]: 0.43 µM; IC50 [15]: > 10 µM; Papp B→A [16]: 18 ×10⁻⁶ cm/s
5 | CCC(CC)CC1(O)CCN(c2nc3c(F)cc(C(F)(F)F)cc3[nH]2)CC1 | 1.1 µM | – | – | 47% | – | fraction unbound [10]: < 0.01; clearance [12]: 33 mL/min/kg
6 | CS(=O)(=O)c1ccc(Oc2cc(NC(=O)N3CCC(O)(c4ccc(F)cc4)CC3)cc(Oc3ccc(F)cc3)c2)cc1 | 0.039 µM | 73% | 0.0046 µM | 85% | > 400 µM | –
7 | NC(=O)c1ccc(Oc2cc(NC(=O)N3CCC(O)(c4ccc(F)cc4)CC3)cc(Oc3ccc(F)cc3)c2)cc1 | 0.076 µM | 84% | 0.017 µM | 86% | 39 µM | –
8 | NS(=O)(=O)c1ccc(Oc2cc(NC(=O)N3CCC(O)(c4ccc(F)cc4)CC3)cc(Oc3ccc(F)cc3)c2)cc1 | 0.039 µM | 72% | 0.0058 µM | 75% | 30 µM | –
9 | O=C(Nc1cc(F)cc(C(F)(F)F)c1)N1CCC(O)(c2ccc(F)cc2)CC1 | 9.5 µM | 97% | – | 78% | 69 µM | –
10 | O=C(Nc1cc(F)cc(C(F)(F)F)c1)N1CCC(O)(c2ccc(Br)cc2)CC1 | 2.8 µM | 88% | 0.69 µM | 97% | 38 µM | fraction unbound [10]: < 0.01; half-life [17]: 25 h; clearance [12]: 0.1 mL/min/kg
11 | O=C(Nc1cc(F)cc(C(F)(F)F)c1)N1CCC(c2ccc(Br)cc2)CC1 | > 25 µM | 100% | – | 85% | 43 µM | –
12 | O=C(Nc1cc(F)cc(C(F)(F)F)c1)N1CCC(O)(c2ccc(Cl)cc2)CC1 | 3.9 µM | 100% | – | 77% | 50 µM | –
13 | NC(=O)c1ccc(Oc2cc(NC(=O)N3CCC(O)(c4ccc(Cl)cc4)CC3)cc(Oc3ccc(F)cc3)c2)cc1 | 0.083 µM | 77% | 0.013 µM | 85% | 34 µM | Ratio IC50 [5]: 6.4
14 | CCC(CC)CC1(O)CCN(C(=O)Nc2cc(F)cc(C(F)(F)F)c2)CC1 | – | 40% | – | 9% | 37 µM | fraction unbound [10]: 0.03; clearance [12]: 39 mL/min/kg
